Laboratory results taken from patent US20240368123A1, “AROMATIC RING-CONTAINING BIOLOGICAL ANTAGONIST, AND PREPARATION METHOD THEREFOR AND USE THEREOF” (SHANGHAI HANSOH BIOMEDICAL CO., LTD., priority 2021, published 2024).

The compounds below were run against T1, AT1 receptors (Homo sapiens, UniProt P30556) (assay: Effect on calcium current in cells stably expressing AT1 receptors (FLIPR, antagonist mode)). Conditions: HEK293-AT1 cells, Fluo-8 AM, FLIPR Tetra; read-out: IC50 values of compounds on calcium current in cells stably expressing AT1 receptors.
T1 construct: host or cells: HEK293
T1 sequence (P30556 1-359): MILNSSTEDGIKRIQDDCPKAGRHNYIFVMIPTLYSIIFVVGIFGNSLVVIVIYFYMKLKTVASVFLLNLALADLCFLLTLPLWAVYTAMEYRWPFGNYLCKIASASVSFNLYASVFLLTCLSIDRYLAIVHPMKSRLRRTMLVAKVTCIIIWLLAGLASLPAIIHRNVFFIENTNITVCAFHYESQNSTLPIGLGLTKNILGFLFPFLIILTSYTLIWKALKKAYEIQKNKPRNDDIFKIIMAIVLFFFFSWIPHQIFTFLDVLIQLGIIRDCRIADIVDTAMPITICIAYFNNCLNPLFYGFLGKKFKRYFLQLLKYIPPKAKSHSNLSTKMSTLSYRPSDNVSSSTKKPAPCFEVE
Type: cell-based
Description: Test Example 1. Determination of the Effect of the Compounds of the Present Invention on Calcium Current in Cells Stably Expressing AT1 Receptors
Antagonistic effect of test compounds on HEK293-AT1 cell activity
• DMEM, high glucose (Gibco: 12100); • Fetal bovine serum (Biosera: FB-1058/500); • P/S (Biosera: XC-A4122); • 5× Matrigel (Corning: 354230); • HBSS (Sigma: H1387); • HEPES (Invitrogen: 15630080); • Fluo-8 AM (AAT Bioquest: 21080); • Probenecid (Sigma: P8761); • Pluronic F-127 (Sigma: P2443-250G); • Angiotensin III TFA (MCE: HY-113035A); • Irbesartan (MCE: HY—B0202); • 1000× Fluo-8 AM (2 mM): Fluo-8 AM was dissolved in DMSO, the mixture was shaken for 1-2 min, sub-packaged and stored at −20° C.; • Complete culture medium: DMEM+10% FBS+1×P/S; • Cell seeding medium: DMEM+10% FBS+1×PS; • Experimental buffer 1: 1×HBSS+20 mM HEPES+1 mM Probenecid+0.025% Pluronic F-127; • Experimental buffer 2: 1×HBSS+20 mM HEPES+0.075% Pluronic F-127; • 1× Matrigel: 5× Matrigel was diluted with DMEM; • Cell line: HDB HEK293-AT1.
• 1) HEK293-AT1 cell line was cultured in complete culture medium at 37° C., 5% CO2 to 70%-90% confluence. • 2) the 384-well cell plate was coated with 1× Matrigel with 5 μL/well at room temperature for 10 to 30 min. • 3) the cells were digested and resuspended in cell seeding medium, inoculation was performed at 8,000 cells/well/20 μL in a 384-well cell culture plate, and the cells were cultured at 37° C., 5% CO2 for 24 h. • 4) the cell culture plate was taken out of the CO2 incubator and equilibrated at room temperature for 10 min. • 5) 1000× Fluo-8 AM was taken and diluted to 1× Fluo-8 AM with experimental buffer 1 that has been equilibrated to room temperature, with a concentration of 2 μM. • 6) the culture medium was removed from the cell culture plate, 20 μL of 1× Fluo-8 AM was added to each well, the mixture was centrifuged at 300 rpm for 60 seconds at room temperature, and incubated at room temperature in the dark for 1 h. • 7) positive control compound and test compound working solution (3×) were formulated: • (1) instrument Bravo was used to dilute the compound to 11 concentration points on the 384-well Echo compound plate (LABCYTE: LP-0200); • (2) instrument ECHO was used to transfer 90 nL of compound per well (compound storage concentration, such as the highest concentration point 10 mM) to the 384-well compound plate (PE: 6008590); • (3) Multidrop Combi was used to add 30 μL of experimental buffer 2 to the 384-well compound plate (PE: 6008590), the positive control compound and test compound were diluted to 30 μM (3×), and placed at room temperature until use. • 8) FLIPR Tetra was used to add 10 μL of diluted 3× compound into the experimental well of the corresponding 384-well cell plate, the compound and cells were incubated for 10 min at room temperature, then 10 μL of diluted 4× agonist was added, and the data was read and collected at the same time.
FLIPR Tetra was used to read and collect the fluorescence signal value (RFU). The maximum RFU value was used to calculate the percent activation data based on the readings of the Low control (DMSO control) and High control (100 nM positive compound) experimental groups {% activation rate=(RFUsample−RFUlow control)/(RFUhigh control−RFUlow control)×100}. The concentration of the test compound was 11 concentrations after diluting the reaction system 3 times, ranging from 10 uM to 0.17 nM.

Row | SMILES | IC50 [nM]
1 | CCCCC1=NC2(CCCC2)C(=O)N1Cc1ccc(-c2ccccc2S(=O)(=O)Nc2noc(C)c2Cl)c(COCC(F)(F)F)c1 [Example 86] | 2.2
2 | CCCCC1=NC2(CC3CC3C2)C(=O)N1Cc1ccc(-c2ccccc2S(=O)(=O)Nc2noc(C)c2Cl)c(COCC)c1 (stereo not drawn) [Example 65, 4′-((2′-butyl-5′-oxaspiro[bicyclo[3.1.0]hexane-3,4′-imidazole]-1′(5′H)-yl)methyl)-N-(4-chloro-5-methylisoxazol-3-yl)-2′-(ethoxymethyl)-[1,1′-biphenyl]-2-sulfonamide] | 4.4
3 | CCCCC1=NC2(CC3CC3C2)C(=O)N1Cc1ccc(-c2ccccc2S(=O)(=O)Nc2noc(C)c2C)c(COCC)c1 (stereo not drawn) [Example 87, 4′-((2′-butyl-5′-oxaspiro[bicyclo[3.1.0]hexane-3,4′-imidazole]-1′(5′H)-yl)methyl)-N-(4,5-dimethylisoxazol-3-yl)-2′-(ethoxymethyl)-[1,1′-biphenyl]-2-sulfonamide] | 9.6
4 | [2H]C([2H])(OCC)c1cc(CN2C(=O)C3(CCCC3)N=C2CCCC)ccc1-c1ccccc1S(=O)(=O)Nc1noc(C)c1Cl [Example 49, 4′-((2-butyl-4-oxo-1,3-diazospiro[4.4]non-1-en-3-yl)methyl)-N-(4-chloro-5-methylisoxazol-3-yl)-2′-(ethoxydeuteriummethyl)-[1,1′-biphenyl]-2-sulfonamide] | 7.2
5 | CCCCC1=NC2(CCCCC2)C(=O)N1Cc1ccc(-c2ccccc2S(=O)(=O)Nc2noc(C)c2Cl)c(COCC)c1 [Example 68, 4′-((2-2-4-4-oxo-1,3-diazaspiro[4.5]dec-1-en-3-yl)methyl)-N-(4-chloro-5-methylisoxazol-3-yl)-2′-(ethoxymethyl)-[1,1′-biphenyl]-2-sulfonamide] | 8.8
6 | CCCCC1=NC2(CCCC2)C(=O)N1Cc1ccc(-c2ccccc2S(=O)(=O)Nc2noc(C)c2Br)c(COCC)c1 [Example 46, 2-[4-[(2-butyl-4-oxo-1,3-diazaspiro[4.4]non-1-en-3-yl)methyl]-2-(ethoxymethyl)phenyl]-N-(4-bromo-5-methyl-isoxazol-3-yl)benzsulfamide] | 3.9
